In ChEMBL document CHEMBL1201862, “PubChem BioAssay data set” (2004):
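All cell lines were grown in 96-well plates and treated with compound for 48 hours. At the GI50, growth is halved.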 The source made the active and inactive calls. Cut-off read from the data, not from the text of the source: active = GI50 up to about 1.1 µM and inactive = higher.

Legend:
Assay in all cases: NCI-60 cell line screen, 48 h
HL-60 = tested on: HL-60
EKVX = tested on: EKVX
CCRF-CEM = tested on: CCRF-CEM
HCT-116 = tested on: HCT-116
ACHN = tested on: ACHN
SF-268 = tested on: SF-268
OVCAR-8 = tested on: OVCAR-8
SK-MEL-28 = tested on: SK-MEL-28
Hs-578T = tested on: Hs-578T
K562 = tested on: K562
SK-OV-3 = tested on: SK-OV-3
U-251 = tested on: U-251
SF-539 = tested on: SF-539
MCF7 = tested on: MCF7
A498 = tested on: A498
LOX IMVI = tested on: LOX IMVI
NCI-H460 = tested on: NCI-H460
PC-3 = tested on: PC-3
SN12C = tested on: SN12C
Malme-3M = tested on: Malme-3M

Structure (SMILES) | GI50 (HL-60) | GI50 (EKVX) | GI50 (CCRF-CEM) | GI50 (HCT-116) | GI50 (ACHN) | GI50 (SF-268) | GI50 (OVCAR-8) | GI50 (SK-MEL-28) | GI50 (Hs-578T) | GI50 (K562) | GI50 (SK-OV-3) | GI50 (U-251) | GI50 (SF-539) | GI50 (MCF7) | GI50 (A498) | GI50 (LOX IMVI) | GI50 (NCI-H460) | GI50 (PC-3) | GI50 (SN12C) | GI50 (Malme-3M)
CC(C)[Si]1(C(C)C)OCC2OC(n3c(C(=O)c4ccccc4)cc(=O)[nH]c3=O)CC2O[Si](C(C)C)(C(C)C)O1 (stereo not given) | 2.67 µM (inactive) | 3.71 µM (inactive) | 2.12 µM (inactive) | 3.15 µM (inactive) | 3.16 µM (inactive) | 2.78 µM (inactive) | 1.99 µM (inactive) | 3.72 µM (inactive) | 2.26 µM (inactive) | 3.05 µM (inactive) | 11.9 µM (inactive) | 3.15 µM (inactive) | 2.88 µM (inactive) | 2.94 µM (inactive) | 11.4 µM (inactive) | 2 µM (inactive) | 3.58 µM (inactive) | 2.2 µM (inactive) | 2.39 µM (inactive) | 3.75 µM (inactive)
C=C1C(=O)OC2C1CCC(=C)C1CC(O)C(=C)C12 (stereo not given) | 1.82 µM (inactive) | 7.16 µM (inactive) | 2.21 µM (inactive) | 12.7 µM (inactive) | 3.18 µM (inactive) | 15.4 µM (inactive) | 24.9 µM (inactive) | 14.4 µM (inactive) | 36.9 µM (inactive) | 5.09 µM (inactive) | 33.8 µM (inactive) | 23.3 µM (inactive) | 16.9 µM (inactive) | 7.43 µM (inactive) | 20 µM (inactive) | 7.52 µM (inactive) | 18 µM (inactive) | 13.4 µM (inactive) | 16.2 µM (inactive) | 14.3 µM (inactive)
COc1cccc(C2c3cc4c(cc3OC(NNS(=O)(=O)c3ccc(C)cc3)C2C)OCO4)c1OC (stereo not given) | 1.42 µM (inactive) | 3.18 µM (inactive) | 2.03 µM (inactive) | 1.78 µM (inactive) | 2.77 µM (inactive) | 4.3 µM (inactive) | 27.4 µM (inactive) | 6.98 µM (inactive) | 1.83 µM (inactive) | 2.12 µM (inactive) | 2.59 µM (inactive) | 2.62 µM (inactive) | 2.97 µM (inactive) | 2.99 µM (inactive) | 2.41 µM (inactive) | 2.08 µM (inactive) | 2.67 µM (inactive) | 2.97 µM (inactive) | 3.2 µM (inactive) | 3.61 µM (inactive)
Cc1ccc2c(c1)CC1(Cc3c(C)cccc3C1=O)C2=O (stereo not given) | > 100 µM (inactive) | > 100 µM (inactive) | > 100 µM (inactive) | > 100 µM (inactive) | > 100 µM (inactive) | > 100 µM (inactive) | > 100 µM (inactive) | > 100 µM (inactive) | 22.6 µM (inactive) | > 100 µM (inactive) | 76.2 µM (inactive) | 87.5 µM (inactive) | > 100 µM (inactive) | > 100 µM (inactive) | > 100 µM (inactive) | > 100 µM (inactive) | > 100 µM (inactive) | > 100 µM (inactive) | > 100 µM (inactive) | > 100 µM (inactive)
CC(=O)C(=[N+]=[N-])C(=O)OCCOC(=O)C(=[N+]=[N-])C(C)=O | > 1 µM (active) | > 1 µM (active) | > 1 µM (active) | > 1 µM (active) | > 1 µM (active) | > 1 µM (active) | > 1 µM (active) | > 1 µM (active) | > 1 µM (active) | > 1 µM (active) | > 1 µM (active) | > 1 µM (active) | > 1 µM (active) | > 1 µM (active) | > 1 µM (active) | > 1 µM (active) | > 1 µM (active) | > 1 µM (active) | > 1 µM (active) | > 1 µM (active)
O=C1c2ccccc2C(=O)c2sc(Nc3ccc([N+](=O)[O-])cc3)nc21 | 0.984 µM (active) | 14.7 µM (inactive) | 1.97 µM (inactive) | 6.62 µM (inactive) | 2.99 µM (inactive) | 6.93 µM (inactive) | 4.66 µM (inactive) | 10.6 µM (inactive) | 1.32 µM (inactive) | 2.17 µM (inactive) | 21.7 µM (inactive) | 3.85 µM (inactive) | 7.91 µM (inactive) | 9.35 µM (inactive) | 17.2 µM (inactive) | 2.03 µM (inactive) | 10 µM (inactive) | 7.38 µM (inactive) | 3.19 µM (inactive) | 6.25 µM (inactive)
C[n+]1c(-c2ccc(/C=N/NC(=O)c3ccc(C(=O)N/N=C/c4ccc(-c5cn6ccccc6[n+]5C)cc4)cc3)cc2)cn2ccccc21 | > 100 µM (inactive) | > 100 µM (inactive) | > 34.3 µM (inactive) | > 100 µM (inactive) | > 73.3 µM (inactive) | > 100 µM (inactive) | > 100 µM (inactive) | > 100 µM (inactive) | > 100 µM (inactive) | > 100 µM (inactive) | > 100 µM (inactive) | > 100 µM (inactive) | > 84.9 µM (inactive) | > 100 µM (inactive) | 29.2 µM (inactive) | > 100 µM (inactive) | > 100 µM (inactive) | > 100 µM (inactive) | > 100 µM (inactive) | > 54.6 µM (inactive)
O=c1c(Cc2ccccc2Cc2c(O)oc3ccccc3c2=O)c(O)oc2ccccc12 | > 100 µM (inactive) | > 100 µM (inactive) | > 100 µM (inactive) | > 100 µM (inactive) | > 100 µM (inactive) | > 100 µM (inactive) | > 100 µM (inactive) | > 100 µM (inactive) | > 100 µM (inactive) | > 100 µM (inactive) | > 100 µM (inactive) | > 100 µM (inactive) | > 100 µM (inactive) | > 100 µM (inactive) | > 100 µM (inactive) | > 100 µM (inactive) | > 100 µM (inactive) | > 100 µM (inactive) | > 100 µM (inactive) | > 100 µM (inactive)
